Laboratory results as given in patent EP4035684A1, “AFFINITY ILLUDOFULVENE CONJUGATES” (AF Chemical LLC, priority 2019, dated 2022).

Columns and labels:
[1] = system: Prostate LnCAP (positive PSA); experiment: Activity of PSA cleavable analogs against PSA positive cell line, 48 hour exposure; type: cell-based; conditions: Homo sapiens, N=3, mean ± SD
[2] = system: Prostate DuPro (trace PSA); experiment: Activity of PSA cleavable analogs against trace PSA cell line, 48 hour exposure; type: cell-based; conditions: Homo sapiens, N=3, mean ± SD
NCI 60 cell line panel = conditions: mean over NCI DTP 60 cell lines, cited from earlier work
[3] = system: Prostate PC3 (negative PSA); experiment: Activity of PSA cleavable analogs against PSA negative cell line, 48 hour exposure; type: cell-based; conditions: N=3, mean ± SD

## CC1=C2C(=C[C@@](C)(CO)[C@@H]2O)C(=O)[C@](C)(O)C12CC2 [Illudin S]
[1]
  IC50: 15 ± 3 nM
[2]
  IC50: 11 ± 3 nM
NCI 60 cell line panel
  Mean TGI cytostatic: 64 nM
NCI 60 cell line panel; read-out: Mean GI50 inhibition
  GI50: 10 nM
[3]
  IC50: 16 ± 5 nM
